From ChEMBL document CHEMBL1201862, “PubChem BioAssay data set” (2004)
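48-hour exposure; five concentrations; linearly interpolated endpoints. GI50: concentration for 50% inhibition of growth.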 Active and inactive are the calls of the source. No stated cut-off is given here; in the data, active = GI50 up to about 1.1 µM and inactive = higher.

Key:
Assay in all cases: growth of human tumour cells (NCI), 48 h
SK-MEL-28 = test system: SK-MEL-28
HL-60 = test system: HL-60
MCF7 = test system: MCF7
SR = test system: SR
K562 = test system: K562
SN12C = test system: SN12C
COLO 205 = test system: COLO 205
786-0 = test system: 786-0
IGROV-1 = test system: IGROV-1
DU-145 = test system: DU-145
SW-620 = test system: SW-620
HT-29 = test system: HT-29
LOX IMVI = test system: LOX IMVI
Malme-3M = test system: Malme-3M
NCI-H460 = test system: NCI-H460
NCI-H226 = test system: NCI-H226
HCT-15 = test system: HCT-15
SK-MEL-2 = test system: SK-MEL-2
BT-549 = test system: BT-549
SNB-75 = test system: SNB-75

Compound	GI50 (SK-MEL-28)	GI50 (HL-60)	GI50 (MCF7)	GI50 (SR)	GI50 (K562)	GI50 (SN12C)	GI50 (COLO 205)	GI50 (786-0)	GI50 (IGROV-1)	GI50 (DU-145)	GI50 (SW-620)	GI50 (HT-29)	GI50 (LOX IMVI)	GI50 (Malme-3M)	GI50 (NCI-H460)	GI50 (NCI-H226)	GI50 (HCT-15) [µM]	GI50 (SK-MEL-2)	GI50 (BT-549)	GI50 (SNB-75)
Cc1ccc(-c2cc(-c3c(C)nn(C)c(=O)c3N)n[nH]2)cc1	> 100 µM (inactive)	> 100 µM (inactive)	> 100 µM (inactive)	> 100 µM (inactive)	> 100 µM (inactive)	> 100 µM (inactive)	> 100 µM (inactive)	> 100 µM (inactive)	> 100 µM (inactive)	> 100 µM (inactive)	> 100 µM (inactive)	> 100 µM (inactive)	> 100 µM (inactive)	> 100 µM (inactive)	> 100 µM (inactive)	> 100 µM (inactive)	> 100	> 100 µM (inactive)	–	–
N=C(N)NC(=N)Nc1ccccc1.Sc1nc2ccccc2s1	> 100 µM (inactive)	> 100 µM (inactive)	> 100 µM (inactive)	–	> 100 µM (inactive)	> 100 µM (inactive)	> 100 µM (inactive)	> 100 µM (inactive)	70.5 µM (inactive)	> 100 µM (inactive)	> 100 µM (inactive)	> 100 µM (inactive)	> 100 µM (inactive)	> 100 µM (inactive)	> 100 µM (inactive)	> 100 µM (inactive)	> 100	> 100 µM (inactive)	> 100 µM (inactive)	> 100 µM (inactive)
O=C1NC2c3c(I)sc(I)c3/C(=N\O)C2O1 (configuration not stated)	41.8 µM (inactive)	20 µM (inactive)	33.8 µM (inactive)	29.9 µM (inactive)	19.9 µM (inactive)	30.8 µM (inactive)	20.8 µM (inactive)	24.4 µM (inactive)	19.8 µM (inactive)	53.7 µM (inactive)	19 µM (inactive)	17.9 µM (inactive)	29.4 µM (inactive)	25.1 µM (inactive)	31.5 µM (inactive)	31 µM (inactive)	24.4	63.7 µM (inactive)	–	59.6 µM (inactive)
C/C=C\C(CC(=O)NCCC1CN(S(=O)(=O)C(F)(F)F)c2ccccc21)CC(=O)OC (configuration not stated)	43.3 µM (inactive)	–	49.9 µM (inactive)	> 100 µM (inactive)	51.8 µM (inactive)	–	24.8 µM (inactive)	34.2 µM (inactive)	50 µM (inactive)	> 100 µM (inactive)	55.8 µM (inactive)	21.8 µM (inactive)	–	15.9 µM (inactive)	35.6 µM (inactive)	–	42.8	32.1 µM (inactive)	27.4 µM (inactive)	–
CCN(CC)c1nc(N(C)C)c2ccc(OC)cc2n1	12.5 µM (inactive)	3.64 µM (inactive)	10.9 µM (inactive)	12.7 µM (inactive)	14 µM (inactive)	15 µM (inactive)	7.55 µM (inactive)	17.5 µM (inactive)	23.2 µM (inactive)	–	7.08 µM (inactive)	4.12 µM (inactive)	17.1 µM (inactive)	18.3 µM (inactive)	10.3 µM (inactive)	14.2 µM (inactive)	12.4	15.9 µM (inactive)	22.8 µM (inactive)	15.6 µM (inactive)
Oc1c(Cl)c(Cl)c(O)c2c1CCCC2	13.6 µM (inactive)	–	2.13 µM (inactive)	–	–	14.7 µM (inactive)	1.83 µM (inactive)	1.93 µM (inactive)	–	–	1.99 µM (inactive)	19.1 µM (inactive)	3.48 µM (inactive)	2.84 µM (inactive)	15.1 µM (inactive)	1.88 µM (inactive)	12.9	19.7 µM (inactive)	14.8 µM (inactive)	–
OC(C1CCC=NN1C(O)(C(F)(F)F)C(F)(F)F)(C(F)(F)F)C(F)(F)F (configuration not stated)	> 10 µM (inactive)	–	> 10 µM (inactive)	> 10 µM (inactive)	> 10 µM (inactive)	> 10 µM (inactive)	> 10 µM (inactive)	> 10 µM (inactive)	> 10 µM (inactive)	> 10 µM (inactive)	–	> 10 µM (inactive)	> 10 µM (inactive)	> 10 µM (inactive)	> 10 µM (inactive)	> 10 µM (inactive)	> 10	> 10 µM (inactive)	> 10 µM (inactive)	> 10 µM (inactive)
C=CCC1(O)CC(n2cc(C)c(=O)[nH]c2=O)OC1CO[Si](C)(C)C(C)(C)C (configuration not stated)	68.9 µM (inactive)	–	47.8 µM (inactive)	45 µM (inactive)	61.4 µM (inactive)	31.6 µM (inactive)	21.6 µM (inactive)	44.1 µM (inactive)	46.9 µM (inactive)	45.8 µM (inactive)	73.1 µM (inactive)	40.9 µM (inactive)	31.2 µM (inactive)	–	38.7 µM (inactive)	49.5 µM (inactive)	44.4	22.3 µM (inactive)	46.3 µM (inactive)	38 µM (inactive)
c1ccc2c(c1)SCCC2NC1=NCCO1 (configuration not stated)	> 100 µM (inactive)	> 100 µM (inactive)	> 100 µM (inactive)	> 100 µM (inactive)	> 100 µM (inactive)	> 100 µM (inactive)	> 100 µM (inactive)	> 100 µM (inactive)	> 100 µM (inactive)	> 100 µM (inactive)	> 100 µM (inactive)	89.5 µM (inactive)	> 100 µM (inactive)	> 100 µM (inactive)	> 100 µM (inactive)	> 100 µM (inactive)	> 100	> 100 µM (inactive)	–	> 100 µM (inactive)
CC(=O)[C@@]1(C)CC2(CCN(C)CC2)OC1C (some centres not stated)	> 100 µM (inactive)	–	–	–	> 100 µM (inactive)	> 100 µM (inactive)	> 100 µM (inactive)	> 100 µM (inactive)	> 100 µM (inactive)	> 100 µM (inactive)	> 100 µM (inactive)	> 100 µM (inactive)	> 100 µM (inactive)	> 100 µM (inactive)	> 100 µM (inactive)	> 100 µM (inactive)	> 100	–	> 100 µM (inactive)	> 100 µM (inactive)
CC(=O)OCc1cc2c(s1)C(=O)c1sccc1C2=O	< 0.0386 µM (active)	0.29 µM (active)	0.208 µM (active)	1.89 µM (inactive)	0.277 µM (active)	0.13 µM (active)	1.65 µM (inactive)	0.619 µM (active)	1.46 µM (inactive)	0.0336 µM (active)	0.104 µM (active)	0.65 µM (active)	< 0.0182 µM (active)	0.272 µM (active)	0.175 µM (active)	0.355 µM (active)	0.156	0.0935 µM (active)	–	0.057 µM (active)
Cc1oc2nc(N(C)C)nc(NN)c2c1C	> 100 µM (inactive)	> 100 µM (inactive)	–	–	> 100 µM (inactive)	> 100 µM (inactive)	> 100 µM (inactive)	> 100 µM (inactive)	> 100 µM (inactive)	> 100 µM (inactive)	> 100 µM (inactive)	> 100 µM (inactive)	–	–	> 100 µM (inactive)	> 100 µM (inactive)	> 100	> 100 µM (inactive)	> 100 µM (inactive)	> 100 µM (inactive)
CCOC(=O)c1cc(C2CCN(Cc3ccccc3)C2=O)c(C(=O)/C=C(/C)N)[nH]1 (configuration not stated)	> 100 µM (inactive)	–	96.6 µM (inactive)	–	> 100 µM (inactive)	–	> 100 µM (inactive)	55.6 µM (inactive)	67.5 µM (inactive)	> 100 µM (inactive)	> 100 µM (inactive)	> 100 µM (inactive)	–	> 100 µM (inactive)	85.5 µM (inactive)	–	> 100	> 100 µM (inactive)	> 100 µM (inactive)	> 100 µM (inactive)
Cc1ccc(-n2cc(-c3ccc(Cl)cc3)c3c(N/N=C4\SCC(=O)N4C)ncnc32)cc1	2.44 µM (inactive)	> 100 µM (inactive)	–	20.7 µM (inactive)	5 µM (inactive)	5.6 µM (inactive)	4.09 µM (inactive)	3.39 µM (inactive)	14.8 µM (inactive)	> 100 µM (inactive)	16.3 µM (inactive)	12.3 µM (inactive)	5.64 µM (inactive)	3.31 µM (inactive)	4.31 µM (inactive)	7.35 µM (inactive)	59.3	2.48 µM (inactive)	15.6 µM (inactive)	–
COc1cc2c(c(OC)c1OC)-c1ccc(SC)c(=O)cc1C(CC(=O)Oc1ccc(F)cc1)C2 (configuration not stated)	0.48 µM (active)	0.043 µM (active)	–	0.0466 µM (active)	0.15 µM (active)	0.367 µM (active)	0.133 µM (active)	0.0625 µM (active)	0.605 µM (active)	–	0.0918 µM (active)	0.164 µM (active)	0.236 µM (active)	0.392 µM (active)	0.253 µM (active)	0.231 µM (active)	0.26	0.23 µM (active)	–	0.234 µM (active)
O=C(O)c1c(-c2cccc3ccccc23)sc(-c2cccc3ccccc23)c1C(=O)O	> 100 µM (inactive)	> 100 µM (inactive)	–	47.9 µM (inactive)	90.8 µM (inactive)	> 100 µM (inactive)	> 100 µM (inactive)	> 100 µM (inactive)	> 100 µM (inactive)	–	> 100 µM (inactive)	> 100 µM (inactive)	> 100 µM (inactive)	> 100 µM (inactive)	> 100 µM (inactive)	> 100 µM (inactive)	> 100	35.9 µM (inactive)	–	> 100 µM (inactive)
C/C(=N\NC(=O)c1ccccc1O)c1cccc(/C(C)=N/NC(=O)c2ccccc2O)n1	–	–	26.2 µM (inactive)	1.89 µM (inactive)	15 µM (inactive)	6.07 µM (inactive)	–	5.32 µM (inactive)	–	13.3 µM (inactive)	5.74 µM (inactive)	8.61 µM (inactive)	1.7 µM (inactive)	10.6 µM (inactive)	6.71 µM (inactive)	–	7.55	10.2 µM (inactive)	> 39.4 µM (inactive)	12.1 µM (inactive)
